This assay concerns hydrangea young plants. Briefly: Dwarfing test of hydrangea young plant. The class given is in vivo. The following applies: for Plant Height / Dwarfing Rate: 100 ml per pot on 42nd day, measured 72nd day; for Dwarfing Rate: vs comparative group. As for the experimental part: Dwarfing rate (%)=[(the plant height of the comparative group)−(the plant height of an addition group)/the plant height of the comparative group]×100 […] A cutting of a fresh shoot of hydrangea was planted in the soil of each pot (diameter of 10.5 cm and depth of 8.5 cm) and cultivated continuously after the cuttage. On the 42nd day, top pinching was performed, a young plant was adjusted to have a height of 8 cm and four leaves and planted and fixed in a pot (diameter of 14.5 cm and depth of 14.5 cm) At this point, 100 ml of 0.2% or 0.4% cinnamic acid aqueous solution prepared as described above was added to the nursery soil of 8 pots, and thus 0.2% cinnamic acid aqueous solution addition group and 0.4% cinnamic acid aqueous solution addition group were prepared. Further, 8 pots were prepared as a comparative group on which general watering was performed. The cultivation of young plants of each group was continued. On the 72nd day, heights of young plants in each group were measured, the dwarfing rate (%) was calculated, and the dwarfing effect of cinnamic acid aqueous solution on hydrangea was examined. From the results in Table 26, it became evident that the cinnamic acid solutions are effective in dwarfing hydrangea young plants.

As for `O=C(O)C=Cc1ccccc1` [cinnamic acid], where the note is “0.2% aqueous solution”, the “Plant Height” value worked out at 15.1 cm and the “Dwarfing Rate” value came out at 2.6%. In addition, under “0.4% aqueous solution”, the “Plant Height” value worked out at 11.7 cm and the “Dwarfing Rate” value turned out to be 24.5%. In addition, for the setting “hydrangea young plants, 0.2% and 0.4% aqueous solutions”, the dwarfing effect entry is “effective”.

(Values after patent US20040200144A1, “Plant growth regulator and a method of producing the regulator” (Dainichiseika Color & Chemicals Mfg. Co., Ltd., priority 2003, published 2004).)
